In patent US4337260A, “Imidazopyridine-spiro-piperidine compounds” (Yoshitomi Pharmaceutical Industries, Ltd., priority 1981, dated 1982):

How the values were obtained:
[1] = system: apomorphine-induced vomiting; assay: Effect on apomorphine-induced vomiting; type: in vivo; conditions: Canis lupus familiaris, po, 2 hours prior to apomorphine hydrochloride (0.1 mg/kg, s.c.); beagle dogs; vomiting checked for 2 hours
Experimental: (1) Effect on apomorphine-induced vomiting
The test was performed according to the method described by M. Nakanishi et al. in "Arzneimittel-Forschung", vol. 21, 391 ff (1971).
Groups of 5-10 beagle dogs of both sexes each were used. The test compound was administered orally 2 hours prior to the treatment with apomorphine hydrochloride (0.1 mg/kg, s.c.). The incidence of vomiting was checked for 2 hours, and the ED50 (50% effective dose) was determined.

Cataleptogenic activity = conditions: rat, in vivo, ip; Wistar female rats; from total points of the maximum appearance of catatonia; read-out: Cataleptogenic Activity ED50
Experimental: (2) Cataleptogenic Activity
The test was performed according to the method described by W. Wirth et al. in "Archives Internationales de Pharmacodynamie et de Therapie", vol, 115, 1 ff (1958).
Groups of 5 Wistar female rats each were used. […] The ED50 was determined from total points of the maximum appearance of catatonia.

SMILES	ED50 [1]	TD50 (Cataleptogenic activity)
Cl.Cl.O.O=C1NC2CCCCN2C12CCN(CCCN1c3ccccc3CCc3ccccc31)CC2 (centres unmarked) [Test Compound A, 1'-[3-(10,11-dihydro-5H-dibenzo[b,f]azepin-5-yl)propyl]-1,2,3,5,6,7,8,8a-octahydro-2-oxo-imidazo[1,2-a]pyridine-3-spiro-4'-piperidine dihydrochloride monohydrate]	2.5 mg/kg	> 50 mg/kg
Cl.Cl.O.O=C1N=C2CCCCN2C12CCN(CCCN1c3ccccc3CCc3ccccc31)CC2 [Test Compound C, 1'-[3-(10,11-dihydro-5H-dibenz[b,f]azepin-5-yl)propyl]-2,3,5,6,7,8-hexahydro-2-oxo-imidazo[1,2-a]pyridine-3-spiro-4'-piperidine dihydrochloride monohydrate]	2 mg/kg	> 50 mg/kg
Cl.Cl.O.O=C1NC2CCCCN2C12CCN(CCCN1c3ccccc3CCc3ccc(Cl)cc31)CC2 (centres unmarked) [Test Compound B, 1'-[3-(3-chloro-10,11-dihydro-5H-dibenz[b,f]azepin-5yl)propyl]-1,2,3,5,6,7,8,8a-octahydro-2-oxo-imidazo[1,2-a]pyridine-3spiro-4'-piperidine dihydrochloride monohydrate]	0.5 mg/kg	> 50 mg/kg
CN(C)CCCN1c2ccccc2Sc2ccc(Cl)cc21 [Chlorpromazine, reference compound]	5.1 mg/kg	12 mg/kg
